Data from US11345666B2, “Phenyl and pyridinyl substituted imidazoles as modulators of RORγT” (Janssen Pharmaceutica NV, priority 2018, dated 2022).
Where two headings read alike, the source gives them in different places.

What was measured:
[1] = target: human RORγt ligand binding domain (RORγt LBD) (Homo sapiens (Human), UniProt P51449); test: RORγt ThermoFluor assay
Outline: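 Thermal shift of His-tagged human RORγt LBD (0.065 mg/mL) with 60 μM 1,8-ANS in 100 mM Hepes pH 7.0, 10 mM NaCl, 2.5 mM GSH, 0.002% Tween-20, heated at 1° C./min. Compounds in 1:2 series from a 10 mM DMSO stock; KD estimated from ΔTm using protein unfolding thermodynamics.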

full-length human RORγt = full-length human RORγt (Homo sapiens (Human), UniProt P51449); test: RORγt (full-length human) reporter assay, conditions A or B; format: cell-based; conditions: for IC50: HEK293T cells, read-out: RORγt (FL) Reporter Assay A or B, IC50; for inhibition at 6 µM: read-out: RORγt (FL) Reporter Assay A or B, % inhibition @ 6 μM, 6 μM compound concentration; for inhibition at 2 µM: 2 μM compound concentration (**)
Sequence of full-length human RORγt (P51449 other isoform, or with tags, fused parts or gaps): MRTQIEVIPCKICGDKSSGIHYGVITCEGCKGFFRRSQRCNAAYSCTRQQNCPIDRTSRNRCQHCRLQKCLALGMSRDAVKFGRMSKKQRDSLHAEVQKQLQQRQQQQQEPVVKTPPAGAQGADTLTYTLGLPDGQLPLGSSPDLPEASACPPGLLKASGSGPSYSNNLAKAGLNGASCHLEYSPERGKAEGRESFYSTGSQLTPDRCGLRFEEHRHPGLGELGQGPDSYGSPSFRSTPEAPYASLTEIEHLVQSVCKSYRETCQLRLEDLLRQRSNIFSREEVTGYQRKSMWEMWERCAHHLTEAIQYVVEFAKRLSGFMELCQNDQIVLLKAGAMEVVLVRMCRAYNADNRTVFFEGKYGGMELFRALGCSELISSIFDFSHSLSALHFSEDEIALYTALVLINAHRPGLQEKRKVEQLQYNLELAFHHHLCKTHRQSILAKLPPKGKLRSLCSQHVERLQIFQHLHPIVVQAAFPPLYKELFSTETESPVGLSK
Outline: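 HEK293T cells transiently co-transfected (PEI) with GAL4-DBD–RORγt, GAL4-firefly luciferase and CMV-Renilla reporters; condition A 35,000 cells/well, 170.5 ng DNA/well; condition B 8750 cells/well, 42.6 ng DNA/well.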

[2] = read-out: RORγt (FL) Reporter Assay A or B, % inhibition, 3 μM compound concentration (*)
[3] = read-out: RORγt (FL) Reporter Assay A or B, % inhibition
[4] = 3 μM compound concentration (*), read-out: RORγt (FL) Reporter Assay A or B, % inhibition

Sequence of human RORγt ligand binding domain (RORγt LBD) (P51449 other isoform, or with tags, fused parts or gaps): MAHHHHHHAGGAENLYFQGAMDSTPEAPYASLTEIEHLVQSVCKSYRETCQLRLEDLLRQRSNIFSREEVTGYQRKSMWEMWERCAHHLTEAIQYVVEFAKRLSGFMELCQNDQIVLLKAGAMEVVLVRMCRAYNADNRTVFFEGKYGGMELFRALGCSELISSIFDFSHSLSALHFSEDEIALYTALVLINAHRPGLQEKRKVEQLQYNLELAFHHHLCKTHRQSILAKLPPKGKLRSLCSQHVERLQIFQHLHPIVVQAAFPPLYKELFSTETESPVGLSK

SMILES: CCc1nc(C(=O)NC[C@]2(O)CC[C@@H](S(C)(=O)=O)CC2)c(Cl)n1-c1c(F)cc(CC(O)(C(F)(F)F)C(F)(F)F)cc1F [Example 108, 5-Chloro-1-(2,6-difluoro-4-(3,3,3-trifluoro-2-hydroxy-2-(trifluoromethyl)propyl)phenyl)-2-ethyl-N-(((1s,4s)-1-hydroxy-4-(methylsulfonyl)cyclohexyl)methyl)-1H-imidazole-4-carboxamide]
- Kd [1]: 0.1 µM
- IC50 (full-length human RORγt): 0.34 µM
- inhibition at 6 µM (full-length human RORγt): 99%

SMILES: Cc1nc(C(=O)NC[C@H]2CC[C@H](S(C)(=O)=O)C[C@@H]2O)c(C#N)n1-c1ccc(CC(C)(C)C(F)(F)F)cc1OC(F)F (single isomer, unassigned) [Example 56, 5-Cyano-1-(2-(difluoromethoxy)-4-(3,3,3-trifluoro-2,2-dimethylpropyl)phenyl)-N-(((1R*,2S*,4S*)-2-hydroxy-4-(methylsulfonyl)cyclohexyl)methyl)-2-methyl-1H-imidazole-4-carboxamide]
- Kd [1]: 0.032 µM
- IC50 (full-length human RORγt): 0.063 µM
- inhibition at 3 µM (full-length human RORγt; [2]): 102%

SMILES: COc1cc(CC(C)(C)C(F)(F)F)ccc1-n1cc(C(=O)NC[C@]2(O)CC[C@@H](S(C)(=O)=O)CC2)nc1C [Example 130, N-(((1s,4s)-1-hydroxy-4-(methylsulfonyl)cyclohexyl)methyl)-1-(2-methoxy-4-(3,3,3-trifluoro-2,2-dimethylpropyl)phenyl)-2-methyl-1H-imidazole-4-carboxamide]
- Kd [1]: 0.065 µM
- inhibition at 2 µM (full-length human RORγt; [3]): 73%
- IC50 (full-length human RORγt): 0.54 µM

SMILES: Cc1nc(C(=O)NC[C@@H]2CC[C@@H](S(C)(=O)=O)C[C@H]2O)c(C#N)n1-c1ccc(CC(C)(C)C(F)(F)F)cc1OC(F)F (racemic) [Example 55, 5-Cyano-1-(2-(difluoromethoxy)-4-(3,3,3-trifluoro-2,2-dimethylpropyl)phenyl)-N-(((1RS,2SR,4SR)-2-hydroxy-4-(methylsulfonyl)cyclohexyl)methyl)-2-methyl-1H-imidazole-4-carboxamide]
- Kd [1]: 0.02 µM
- inhibition at 3 µM (full-length human RORγt; [4]): 93%
- IC50 (full-length human RORγt): 0.066 µM

SMILES: CCc1nc(C(=O)NC[C@H]2CC[C@H](S(C)(=O)=O)CC2)c(Cl)n1-c1ncc(CC(C(F)(F)F)C(F)(F)F)cc1OC(F)F [Example 63, 5-Chloro-1-(3-(difluoromethoxy)-5-(3,3,3-trifluoro-2-(trifluoromethyl)propyl)pyridin-2-yl)-2-ethyl-N-(((1r,4r)-4-(methylsulfonyl)cyclohexyl)methyl)-1H-imidazole-4-carboxamide]
- Kd [1]: 0.0073 µM
- inhibition at 3 µM (full-length human RORγt; [4]): 95%
- IC50 (full-length human RORγt): 0.047 µM

SMILES: CCc1nc(C(=O)NC[C@]2(O)CC[C@@H](S(C)(=O)=O)CC2)c(C)n1-c1ncc(CC(C)(C)C(F)(F)F)cc1OC [Example 127, 2-Ethyl-N-(((1s,4s)-1-hydroxy-4-(methylsulfonyl)cyclohexyl)methyl)-1-(3-methoxy-5-(3,3,3-trifluoro-2,2-dimethylpropyl)pyridin-2-yl)-5-methyl-1H-imidazole-4-carboxamide]
- Kd [1]: 0.021 µM
- IC50 (full-length human RORγt): 0.14 µM
- inhibition at 6 µM (full-length human RORγt): 98%

SMILES: [2H]C([2H])([2H])Oc1cc(CC(C)(C)C(F)(F)F)ccc1-n1c(CC)nc(C(=O)NC[C@]2(C#N)CC[C@@H](S(C)(=O)=O)CC2)c1F [Example 31, N-(((1s*,4s*)-1-Cyano-4-(methylsulfonyl)cyclohexyl)methyl)-2-ethyl-5-fluoro-1-(2-(methoxy-d3)-4-(3,3,3-trifluoro-2,2-dimethylpropyl)phenyl)-1H-imidazole-4-carboxamide]
- Kd [1]: 0.014 µM
- inhibition at 2 µM (full-length human RORγt; [3]): 101%
- IC50 (full-length human RORγt): 0.078 µM

SMILES: CCc1nc(C(=O)NC[C@H]2CC[C@H](S(N)(=O)=O)CC2)c(Cl)n1-c1ncc(CC(C)(C)C(F)(F)F)cc1OC(F)F [Example 69, 5-Chloro-1-(3-(difluoromethoxy)-5-(3,3,3-trifluoro-2,2-dimethylpropyl)pyridin-2-yl)-2-ethyl-N-(((1r,4r)-4-sulfamoylcyclohexyl)methyl)-1H-imidazole-4-carboxamide]
- Kd [1]: 0.0072 µM
- inhibition at 3 µM (full-length human RORγt; [4]): 102%
- IC50 (full-length human RORγt): 0.039 µM

SMILES: CCc1nc(C(=O)NC[C@]2(O)CC[C@@H](S(C)(=O)=O)CC2)c(C#N)n1-c1ncc(CC(C)(C)C(F)(F)F)cc1OC [Example 123, 5-Cyano-2-ethyl-N-(((1s,4s)-1-hydroxy-4-(methylsulfonyl)cyclohexyl)methyl)-1-(3-methoxy-5-(3,3,3-trifluoro-2,2-dimethylpropyl)pyridin-2-yl)-1H-imidazole-4-carboxamide]
- Kd [1]: 0.031 µM
- IC50 (full-length human RORγt): 0.24 µM
- inhibition at 6 µM (full-length human RORγt): 102%

SMILES: CCc1nc(C(=O)NC[C@H]2CC[C@H](S(C)(=O)=O)CC2)c(C)n1-c1ccc(CC(C(F)(F)F)C(F)(F)F)cc1F [Example 110, 2-Ethyl-1-(2-fluoro-4-(3,3,3-trifluoro-2-(trifluoromethyl)propyl)phenyl)-5-methyl-N-(((r,4r)-4-(methylsulfonyl)cyclohexyl)methyl)-1H-imidazole-4-carboxamide]
- Kd [1]: 0.0033 µM
- inhibition at 0.07 µM (full-length human RORγt; 0.07 μM compound concentration (*******), read-out: RORγt (FL) Reporter Assay A or B, % inhibition): 90%
- IC50 (full-length human RORγt): 0.0018 µM

SMILES: Cc1nc(C(=O)NC[C@@H]2CC[C@@H](S(C)(=O)=O)C[C@H]2O)c(C#N)n1-c1ccc(CC(C)(C)C(F)(F)F)cc1OC(F)F (single isomer, unassigned) [Example 57, 5-Cyano-1-(2-(difluoromethoxy)-4-(3,3,3-trifluoro-2,2-dimethylpropyl)phenyl)-N-(((1S*,2R*,4R*)-2-hydroxy-4-(methylsulfonyl)cyclohexyl)methyl)-2-methyl-1H-imidazole-4-carboxamide]
- Kd [1]: 0.022 µM
- IC50 (full-length human RORγt): 0.04 µM
- inhibition at 3 µM (full-length human RORγt; [2]): 98%

SMILES: CCc1cc(CC(C)(C)C(F)(F)F)cnc1-n1c(CC)nc(C(=O)NC[C@H]2CC[C@H](S(C)(=O)=O)CC2)c1Cl [Example 75, 5-Chloro-2-ethyl-1-(3-ethyl-5-(3,3,3-trifluoro-2,2-dimethylpropyl)pyridin-2-yl)-N-(((1r,4r)-4-(methylsulfonyl)cyclohexyl)methyl)-1H-imidazole-4-carboxamide]
- Kd [1]: 0.0083 µM
- inhibition at 3 µM (full-length human RORγt; [4]): 110%
- IC50 (full-length human RORγt): 0.059 µM

SMILES: C#Cc1c(C(=O)NC[C@]2(O)CC[C@@H](S(C)(=O)=O)CC2)nc(CC)n1-c1ccc(CC(C)(C)C(F)(F)F)cc1OC(F)F [Example 40, 1-(2-(Difluoromethoxy)-4-(3,3,3-trifluoro-2,2-dimethylpropyl)phenyl)-2-ethyl-5-ethynyl-N-(((1s,4s)-1-hydroxy-4-(methylsulfonyl)cyclohexyl)methyl)-1H-imidazole-4-carboxamide]
- Kd [1]: 0.00073 µM
- inhibition at 2 µM (full-length human RORγt; [3]): 105%
- IC50 (full-length human RORγt): 0.0032 µM

SMILES: CCc1nc(C(=O)NC[C@H]2CC[C@H](S(C)(=O)=O)CC2)c(C)n1-c1ncc(C[C@H](C)C(F)(F)F)cc1OC(F)F (single isomer, unassigned) [Example 73, 1-(3-(Difluoromethoxy)-5-((S*)-3,3,3-trifluoro-2-methylpropyl)pyridin-2-yl)-2-ethyl-5-methyl-N-(((1r,4S)-4-(methylsulfonyl)cyclohexyl)methyl)-1H-imidazole-4-carboxamide]
- Kd [1]: 0.038 µM
- inhibition at 1 µM (full-length human RORγt; 1 μM compound concentration (***), read-out: RORγt (FL) Reporter Assay A or B, % inhibition): 80%
- IC50 (full-length human RORγt): 0.11 µM

SMILES: CCc1nc(C(=O)NC[C@H]2CC[C@H](S(C)(=O)=O)CC2)c(Cl)n1-c1c(F)cc(C[C@@H](C)C(F)(F)F)cc1F (single isomer, unassigned) [Example 87, 5-Chloro-1-(2,6-difluoro-4-((R*)-3,3,3-trifluoro-2-methylpropyl)phenyl)-2-ethyl-N-(((1r,4R)-4-(methylsulfonyl)cyclohexyl)methyl)-1H-imidazole-4-carboxamide]
- Kd [1]: 0.0038 µM
- IC50 (full-length human RORγt): 0.018 µM
- inhibition at 0.67 µM (full-length human RORγt; read-out: RORγt (FL) Reporter Assay A or B, % inhibition, 0.67 μM compound concentration (****)): 66%

SMILES: CCc1nc(C(=O)NC[C@H]2CC[C@H](S(C)(=O)=O)CC2)c(C)n1-c1ncc(CC(C)(C)C(F)(F)F)cc1OC [Example 126, 2-Ethyl-1-(3-methoxy-5-(3,3,3-trifluoro-2,2-dimethylpropyl)pyridin-2-yl)-5-methyl-N-(((1r,4r)-4-(methylsulfonyl)cyclohexyl)methyl)-1H-imidazole-4-carboxamide]
- Kd [1]: 0.0086 µM
- IC50 (full-length human RORγt): 0.076 µM
- inhibition at 6 µM (full-length human RORγt): 100%

SMILES: CCc1nc(C(=O)NC[C@]2(O)CC[C@@H](S(C)(=O)=O)CC2)cn1-c1c(F)cc(CC(C)C)cc1F [Example 81, 1-(2,6-Difluoro-4-isobutylphenyl)-2-ethyl-N-(((1s,4s)-1-hydroxy-4-(methylsulfonyl)cyclohexyl)methyl)-1H-imidazole-4-carboxamide]
- Kd [1]: 0.26 µM
- IC50 (full-length human RORγt): 1.2 µM
- inhibition at 6 µM (full-length human RORγt): 27%

SMILES: CCc1nc(C(=O)NC[C@]2(O)CC[C@@H](S(C)(=O)=O)CC2)c(Cl)n1-c1ccc(CC(C)C)cc1OC (single isomer, unassigned) [Example 92, 5-Chloro-2-ethyl-N-(((1s,4S)-1-hydroxy-4-(methylsulfonyl)cyclohexyl)methyl)-1-((R*)-4-isobutyl-2-methoxyphenyl)-1H-imidazole-4-carboxamide]
- Kd [1]: 0.00028 µM
- IC50 (full-length human RORγt): 0.007 µM
- inhibition at 6 µM (full-length human RORγt): 72%
